According to publication PMC7947296, “p-Terphenyls From Aspergillus sp. GZWMJZ-055: Identification, Derivation, Antioxidant and α-Glycosidase Inhibitory Activities” (Frontiers in Microbiology, 2021):
Where “and” joins values, the source holds several entries; their conditions need not be identical. Equal values may be shown once.

How the values were obtained:
[1] = Oxygen radical absorbance capacity (ORAC) assay; conditions: trolox equivalents; tested at 6.25 μM (compounds 4–7), 12.5 μM (1–3, 8–16), 25.0 μM (17–25); PBS pH 7.4, 37°C
Procedure: The anti-oxidative activity of compounds was evaluated by ORAC assay ([Huang et al., 2002]) that was carried out mainly by using 2,2′-azobis(2-amidinopropane) dihydrochloride (AAPH, 153.0 μM), fluorescein (FL, 81.6 nM), testing compounds, and trolox as a positive control, all of which were dissolved in phosphate buffer solution (PBS, 75 mM, pH 7.4). The concentrations were 6.25 μM for compounds 4–7 and trolox, 12.5 μM for compounds 1–3, 8–16 and trolox, and 25.0 μM for compounds 17–25 and trolox, respectively (Supplementary Figure 36). In short, each 25 μL of testing compounds, blank (PBS), negative (PBS) and trolox, and 150 μL of FL were added in each well and incubated at 37°C for 10 min. Each 25 μL of AAPH was then added to the testing compounds, blank and trolox groups, and 25 μL of PBS was added to the negative group. Fluorescence intensity of each well was measured one time every 1 min for 90 cycles using a Fluoroskan Ascent FL plate-reader (Thermo Scientific Varioskan LUX) at excitation of λ 485 nm and emission of λ 530 nm. The relative fluorescence intensity f was equaled to the ratio of the absolute fluorescence reading to the initial fluorescence reading, and the net area under curve (AUC) was obtained by subtracting the AUC of the blank from that of the compound. The AUC was calculated as 0.5 + f1 +… fi +… + f89 + 0.5 × f90, in which fi means the ratio of fluorescence reading at time i to the initial fluorescence reading. The final ORAC values were calculated as micromole of trolox equivalents per micromole of the compound (μmole TE/μmole) by using a regression equation between the trolox concentration and the net area under the FL decay curve. That is, the relative ORAC value = (AUCcompound – AUCblank)/(AUCtrolox – AUCblank).

[2] = DPPH radical-scavenging assay; conditions: DPPH 0.15 mM in MeOH, 30-min incubation in the dark at rt, absorbance 517 nm
Procedure: The anti-oxidative activity of compounds was also evaluated by 2,2-diphenyl-1-picrylhydrazyl (DPPH) radical-scavenging assay ([Wang et al., 2007]). The experiment was divided into the following five groups, blank (methanol, MeOH), sample (mix compound and DPPH solution), background (pure compound solution), negative (pure DPPH solution), and positive [mix vitamin C (VC) and DPPH solution] controls. DPPH (0.15 mM), compounds (1–100 μM), and VC (1–100 μM) that was regarded as a compound sample in the following procedures all were dissolved in MeOH. Each 160 μL of MeOH was placed in negative control and blank groups, while each 160 μL of testing compounds or VC was placed in sample and background groups. Then, MeOH (each 40 μL) was, respectively, added to blank and background groups, while 40 μL of DPPH was, respectively, added to negative, positive, and sample controls. After 30-min incubation in the dark at rt, the decrease in DPPH radical concentration was monitored by measuring the absorbance at λ 517 nm with a microplate reader (Multiskan Spectrum, Thermo Scientific Varioskan LUX). The DPPH radical-scavenging rate was calculated as:
Scavenging rate (%)=[(Anegative-Ablank)-(Asample-Abackground)]/(Anegative-Ablank)×100%.

[3] = target: α-glucosidase from Saccharomyces cerevisiae (Saccharomyces cerevisiae, UniProt P53341); assay: biochemical;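 note: 15 min preincubation at 37 °C, then 30 min with PNPG substrate at 37 °C, inhibition computed from absorbance versus drug-free blank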
Chain of α-glucosidase from Saccharomyces cerevisiae (P53341 whole entry): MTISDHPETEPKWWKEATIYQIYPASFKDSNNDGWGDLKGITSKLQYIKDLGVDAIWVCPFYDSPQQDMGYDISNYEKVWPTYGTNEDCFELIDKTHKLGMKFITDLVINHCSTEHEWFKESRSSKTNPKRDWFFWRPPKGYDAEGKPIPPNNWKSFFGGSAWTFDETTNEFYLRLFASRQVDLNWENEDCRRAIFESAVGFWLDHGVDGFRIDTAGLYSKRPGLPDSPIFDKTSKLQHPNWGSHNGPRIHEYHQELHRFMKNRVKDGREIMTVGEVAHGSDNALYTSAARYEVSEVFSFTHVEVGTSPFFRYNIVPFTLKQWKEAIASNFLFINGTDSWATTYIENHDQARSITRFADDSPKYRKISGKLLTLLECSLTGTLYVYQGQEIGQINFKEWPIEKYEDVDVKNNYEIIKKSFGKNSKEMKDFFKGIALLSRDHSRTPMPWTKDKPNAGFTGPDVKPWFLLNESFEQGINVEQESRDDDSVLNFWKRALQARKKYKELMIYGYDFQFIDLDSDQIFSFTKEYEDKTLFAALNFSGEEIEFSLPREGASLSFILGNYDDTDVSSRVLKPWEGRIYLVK
Procedure: After incubation for 15 min at 37°C, 20 μL of PNPG solution was added to each well of testing groups and further incubated at 37°C for 30 min. Finally, 80 μL of Na2CO3 solution was added to each well to stop the reaction and the absorbance was measured by a microplate reader (Multiskan Spectrum, Thermo Scientific Varioskan LUX) at λ 405 nm.

[4] = Cytotoxic effects on caco-2 cells by CTG assay; assay type: cell-based; conditions: human, 72 h incubation, read-out: inhibitory rate (cytotoxicity to caco-2 cells)
Procedure: The cytotoxic effects on the coca-2 cells were evaluated by the CTG assay ([Elisia and Kitts, 2008]; [Wang et al., 2019]). Briefly, coca-2 cells were seeded in 96-well plates at a density of 2 × 10^3 cells/well and treated with the final concentration of 1.0 μM of the compounds. After 72 h incubation, 100 μL of CTG solution (Promega) was added into each well. The luminescence value was tested by using a microplate reader (BioTek Synergy H1) after staying at rt for 10 min.

| SMILES | IC50 [2] [µM] | IC50 [3] [µM] | ORAC (μMole TE/μMole) [1] | inhibition at 72 h, 1 µM [4] [%] |
| --- | --- | --- | --- | --- |
| O=C1C=C(c2ccc(O)c(O)c2)C(=O)C(O)=C1c1ccc(O)c(O)c1 [Compound 22] | 1.7 ± 0.02 | 10.1 ± 0.1 | 2.8 ± 0.3 μMole TE/μMole |  |
| COc1cc(-c2ccccc2)c(OC)c(OC)c1-c1ccc(O)cc1 [Compound 3, 4″-deoxy-2′-methoxyterphenyllin] | > 100 | > 500 | 2.1 ± 0.5 μMole TE/μMole |  |
| COc1cc(-c2ccc(O)cc2)c(O)c(O)c1-c1ccc(O)cc1 [Compound 4, 5′-methoxy-[1,1′:4′,1″-terphenyl]-2′,3′,4,4″-tetraol] | 1.7 ± 0.02 | 5.9 ± 0.6 | 6.8 μMole TE/μMole and 6.8 ± 0.05 μMole TE/μMole |  |
| COc1cc(-c2ccc(O)cc2)c(OC)c(O)c1-c1ccc(O)c(O)c1 [Compound 6, 3-hydroxyterphyllin] | 1.4 ± 0.01 | 10.9 ± 1.3 | 5.7 μMole TE/μMole and 5.7 ± 0.3 μMole TE/μMole | 0.2 |
| Oc1ccc(-c2cc(O)c(-c3ccc(O)cc3)c(O)c2O)cc1 [Compound 17] | 5.3 ± 0.06 | 25.1 ± 0.7 | 4.8 μMole TE/μMole and 4.8 ± 0.3 μMole TE/μMole |  |
| COc1cc(-c2ccccc2)c(OC)c(O)c1-c1ccc(O)c(O)c1 [Compound 9, 4″-deoxy-3-hydroxyterphenyllin] | 1.9 ± 0.04 | 464 ± 23.6 | 0.5 ± 0.06 μMole TE/μMole |  |
| COc1cc(-c2ccccc2)c(OC)c(O)c1-c1ccc(O)c(CC=C(C)C)c1 [Compound 11, 4″-deoxyprenylterphenyllin] | 1.6 ± 0.01 | 34.4 ± 1.1 | 1.2 ± 0.5 μMole TE/μMole |  |
| COc1cc(-c2ccc(OC(C)=O)cc2)c(OC)c(OC(C)=O)c1-c1ccc(OC(C)=O)cc1 [Compound 23] | > 100 | > 500 | 0.1 ± 0.01 μMole TE/μMole |  |
| O=C1C=C(c2ccc(O)cc2)C(=O)C(O)=C1c1ccc(O)cc1 [Compound 20] | 5.9 ± 0.08 | 8.9 ± 0.4 | 6.1 μMole TE/μMole and 6.1 ± 0.2 μMole TE/μMole | 0.4 |
| COc1cc(-c2ccc(OC(C)=O)cc2)c(OC)c(OC(C)=O)c1-c1ccc(OC(C)=O)c(OC(C)=O)c1 [Compound 24] | 37.8 ± 0.1 | > 500 | 0.8 ± 0.07 μMole TE/μMole |  |
| COc1cc(-c2ccc(O)cc2)c(OC)c(O)c1-c1ccccc1 [Compound 2, 4-deoxyterphenyllin] | > 100 | 239 ± 5.9 | 1.2 ± 0.09 μMole TE/μMole |  |
| O=C1C=C(c2ccc(O)cc2)C(=O)C(O)=C1c1ccc(O)c(O)c1 [Compound 21] | 1.6 ± 0.04 | 4 ± 0.08 | 3.9 ± 0.1 μMole TE/μMole | 1.2 |
| COc1cc(-c2ccc(O)c(O)c2)c(OC)c(O)c1-c1ccc(O)c(O)c1 [Compound 7, 3,3″-dihydroxyterphyllin] | 1.1 ± 0.03 | 18.3 ± 0.9 | 4.5 μMole TE/μMole and 4.5 ± 0.4 μMole TE/μMole | 0.5 |

The next lines start with results.

| IC50 [2] [µM] | IC50 [3] [µM] | SMILES | ORAC (μMole TE/μMole) [1] | inhibition at 72 h, 1 µM [4] [%] |
| --- | --- | --- | --- | --- |
| 1.6 ± 0.02 | 64.4 ± 1.2 | COc1cc(-c2ccc(O)c(CC=C(C)C)c2)c(OC)c(O)c1-c1ccc(O)c(O)c1 [Compound 12, prenylterphenyllin A] | 1.4 ± 0.01 μMole TE/μMole |  |
| > 100 | > 500 | COc1cc(-c2c(OC)cc(-c3ccccc3)c(OC)c2O)ccc1OCC=C(C)C [Compound 1, 3-O-methyl-4″-deoxyterprenin] | 1.0 ± 0.04 μMole TE/μMole |  |
| 3.6 ± 0.06 | 13.1 ± 0.2 | COc1c(-c2ccc(O)cc2)cc(OC)c2c1oc1cc(O)c(O)cc12 [Compound 15, candidusin A] | 2.1 ± 0.06 μMole TE/μMole | 20.5 |
| 11 ± 0.1 | > 500 | COc1cc(-c2ccc(OC(C)=O)c(OC(C)=O)c2)c(OC)c(OC(C)=O)c1-c1ccc(OC(C)=O)c(OC(C)=O)c1 [Compound 25] | 1.7 ± 0.07 μMole TE/μMole |  |
| 2.8 ± 0.03 |  | O=C1O[C@H]([C@@H](O)CO)C(O)=C1O [VC, vitamin C, reference compound] |  |  |
| 3.7 ± 0.07 | 25 ± 0.8 | Oc1ccc(-c2cc(O)c(-c3ccc(O)c(O)c3)c(O)c2O)cc1 [Compound 18] | 3.7 ± 0.1 μMole TE/μMole |  |
| 10.9 ± 0.3 | 2.8 ± 0.2 | COc1cc(-c2ccc(O)cc2)c(OC)c(O)c1-c1ccc(O)cc1 [Compound 5, terphenyllin] | 6.0 μMole TE/μMole and 6.0 ± 0.09 μMole TE/μMole | 0.4 |
| 4 ± 0.2 | 128 ± 2.3 | COc1c(-c2ccccc2)cc(OC)c2c1oc1cc(O)c(O)cc12 [Compound 14, 4″-deoxycandidusin A] | 0.4 ± 0.06 μMole TE/μMole |  |
| > 100 | 152 ± 9.6 | COc1cc(-c2c(OC)cc(-c3ccc(O)cc3)c(OC)c2O)ccc1OCC=C(C)C [Compound 13, 3-methoxyterprenin] | 0.4 ± 0.07 μMole TE/μMole |  |
| > 100 | > 500 | COc1cc(-c2ccc(O)cc2)c(OC)c(OC)c1-c1ccc(O)cc1 [Compound 10, 3′-O-methylterphenyllin] | 0.5 ± 0.03 μMole TE/μMole |  |
| 57.8 ± 0.8 | 130 ± 3.5 | COc1cc(-c2ccccc2)c(OC)c(O)c1-c1ccc(O)cc1 [Compound 8, 4″-deoxyterphenyllin] | 0.5 ± 0.01 μMole TE/μMole |  |
| 3.2 ± 0.1 | 7.9 ± 0.3 | COc1c(-c2ccc(O)c(O)c2)cc(OC)c2c1oc1cc(O)c(O)cc12 [Compound 16, candidusin B] | 2.0 ± 0.06 μMole TE/μMole | 2.7 |
| 1.8 ± 0.04 | 19.4 ± 0.1 | Oc1ccc(-c2cc(O)c(-c3ccc(O)c(O)c3)c(O)c2O)cc1O [Compound 19] | 2.6 ± 0.1 μMole TE/μMole |  |
